# According to US20110077272A1, “PULMONARY FORMULATIONS OF TRIPTANS” (Vectura Limited, priority 2008, published 2011):
# What was measured:
# [1] = Solubility in ethanol-based HFA 134a pMDI formulations; format: physicochemical
# [2] = Preclinical pulmonary administration of sumatriptan, irritancy to the airways; format: in vivo
# [3] = intranasal route (Duquesnoy et al 1998); cited from earlier work
SMILES,solubility [1],respiratory changes ([2]; 1.9 mg/kg),respiratory changes ([2]; 9 mg/kg),coefficient of variation for Tmax [3] [%]
CNS(=O)(=O)Cc1ccc2[nH]cc(CCN(C)C)c2c1 [sumatriptan succinate],low solubility,–,–,–
CNS(=O)(=O)Cc1ccc2[nH]cc(CCN(C)C)c2c1 [sumatriptan],–,not of degenerative nature,degeneration occurred,62.8
